Converted amounts (≈) assume the structure as drawn. “And” between values parts separate entries of the source, which are not always exact repeats. Equal values may be shown once.
What was measured:
MCF-7 cells [1] = experiment: Apoptosis induction, Annexin V-FITC/PI flow cytometry; type: cell-based, human; details: MCF-7, at IC50, 24 h
poly(dG-dC)2 = experiment: Ethidium bromide assay, DNA-binding effects on poly; details: EtBr-DNA complex, compound 10 μM, 25 °C 30 min
MCF-7 cells [2] = experiment: Wound healing assay; type: cell-based, human; details: MCF-7, at IC50 concentrations
[3] = test system: normal human skin fibroblasts (HSF); experiment: Normal cytotoxicity evaluation, MTT; type: cell-based; details: Skin fibroblast, 24 h, read-out: Normal HSF IC50
plasmid pBR322 [4] = experiment: Ethidium bromide assay, DNA-binding effects on plasmid pBR322; details: EtBr-DNA complex, compound 10 μM, 25 °C 30 min; no drug = 100% fluorescence
T4 coliphage DNA = experiment: Ethidium bromide assay, DNA-binding effects on T4 coliphage DNA; details: EtBr-DNA complex, compound 10 μM, 25 °C 30 min
poly(dA-dT)2 = experiment: Ethidium bromide assay, DNA-binding effects on poly; details: EtBr-DNA complex, compound 10 μM, 25 °C 30 min
recombinant human DHFR = target: T1, recombinant human DHFR (Homo sapiens, UniProt P00374); experiment: Dihydrofolate reductase; type: biochemical
T1 sequence (P00374 1-187): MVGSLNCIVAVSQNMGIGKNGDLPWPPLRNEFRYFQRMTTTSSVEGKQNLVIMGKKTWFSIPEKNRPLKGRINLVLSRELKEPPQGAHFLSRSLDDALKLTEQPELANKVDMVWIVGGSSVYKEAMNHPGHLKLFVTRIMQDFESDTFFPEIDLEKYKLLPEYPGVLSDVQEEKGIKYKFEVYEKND

calf thymus DNA = experiment: Ethidium bromide assay, DNA-binding effects on calf thymus DNA; details: EtBr-DNA complex, compound 10 μM, 25 °C 30 min
[5] = test system: MCF-7 breast cancer cell line; experiment: In vitro anti-proliferative MTT assay; type: cell-based, human; details: for IC50: Homo sapiens, MCF7, 24 h, read-out: MCF-7 IC50; for Selectivity index (SI): IC50 against normal cells (HSF) divided by IC50 against cancer cells (MCF-7)
plasmid pBR322 [6] = details: NT under the same conditions; cited from earlier work

| Compound | Decrease in fluorescence (%) Poly (dG-dC)2 (poly(dG-dC)2) | Decrease in fluorescence (%) pBr322 (plasmid pBR322 [4]) | Decrease in fluorescence (%) Poly (dA-dT)2 (poly(dA-dT)2) | IC50 (recombinant human DHFR) | IC50 [5] | Percentage of necrosis (MCF-7 cells [1]) | Percentage of total apoptosis (MCF-7 cells [1]) | % Wound closure after 24 h treatment (MCF-7 cells [2]) | IC50 [3] | Decrease in fluorescence (%) T4 DNA (T4 coliphage DNA) | Decrease in fluorescence (%) Calf Thymus DNA (calf thymus DNA) | Selectivity index (SI) [5] | Decrease in fluorescence (%) pBr322 (degree of EtBr displacement) (plasmid pBR322 [6]) |
| --- | --- | --- | --- | --- | --- | --- | --- | --- | --- | --- | --- | --- | --- |
| O=C(O)C(/C=C/c1ccc(Cl)cc1)=N\Nc1nc(-c2ccc(Br)cc2)cs1 [Compound 10, (2Z,3E)-4-(4-Chlorophenyl)-2-(2-(4-(4-bromophenyl)thiazol-2-yl)hydrazinylidene)but-3-enoic acid] | 50.15% | 53.76% | 39.34% | 58.29 ± 0.02 µM |  |  |  |  |  | 32.32% | 30.53% |  |  |
| O=C(O)C(/C=C/c1c(Cl)cccc1Cl)=N\Nc1nc(-c2ccc(F)cc2)cs1 [Compound 15, (2Z,3E)-4-(2,6-dichlorophenyl)-2-(2-(4-(4-fluorophenyl)thiazol-2-yl)hydrazinylidene)but-3-enoic acid] | 57.81% | 70.97% | 55.27% | 62.31 ± 0.02 µM |  |  |  |  |  | 39.02% | 72.10% |  |  |
| O=C(O)C(/C=C/c1c(Cl)cccc1Cl)=N\Nc1nc(-c2ccc(Cl)cc2)cs1 [Compound 16, (2Z,3E)-4-(2,6-dichlorophenyl)-2-(2-(4-(4-chlorophenyl)thiazol-2-yl)hydrazinylidene)but-3-enoic acid] | 63.12% | 64.16% | 51.29% | 53.18 ± 0.01 µM |  |  |  |  |  | 52.44% | 50.53% |  |  |
| O=C(O)C(/C=C/c1c(Cl)cccc1Cl)=N\Nc1nc(-c2ccc(Br)cc2)cs1 [Compound 17, (2Z,3E)-4-(2,6-dichlorophenyl)-2-(2-(4-(4-bromophenyl)thiazol-2-yl)hydrazinylidene)but-3-enoic acid] | 63.44% | 61.65% | 42.62% | 60.28 ± 0.02 µM |  |  |  |  |  | 35.36% | 54.21% |  |  |
| O=C(O)C(/C=C/c1c(Cl)cccc1Cl)=N\Nc1nc(-c2ccc([N+](=O)[O-])cc2)cs1 [Compound 18, (2Z,3E)-4-(2,6-dichlorophenyl)-2-(2-(4-(4-nitrophenyl)thiazol-2-yl)hydrazinylidene)but-3-enoic acid] | 62.50% | 55.56% | 37.00% | 63.18 ± 0.01 µM |  |  |  |  |  | 45.12% | 76.84% |  |  |
| CN(Cc1cnc2nc(N)nc(N)c2n1)c1ccc(C(=O)N[C@@H](CCC(=O)O)C(=O)O)cc1 [MTX, Methotrexate, reference compound] |  | 100% |  |  | 56.9 µg/mL (≈ 125 µM) | 6.50% |  | 45.46% | 126 µg/mL (≈ 276 µM) |  |  |  |  |
| Cn1cc(NC(=O)c2cc(NC(=O)CN=C(N)N)cn2C)cc1C(=O)NCCC(=N)N [NT, netropsin, reference compound] | 85% and 85.13% |  | 62.02% |  |  |  |  |  |  | 70.06% | 90.24% |  | 74% |
| COc1cc(Cc2cnc(N)nc2N)cc(OC)c1OC [TMP, trimethoprim, reference compound] |  | 100% |  |  |  |  |  |  |  |  |  |  |  |

Second part, led by results:

| Decrease in fluorescence (%) Poly (dG-dC)2 (poly(dG-dC)2) | Decrease in fluorescence (%) pBr322 (plasmid pBR322 [4]) | Decrease in fluorescence (%) Poly (dA-dT)2 (poly(dA-dT)2) | IC50 (recombinant human DHFR) | IC50 [5] | Compound | Percentage of necrosis (MCF-7 cells [1]) | Percentage of total apoptosis (MCF-7 cells [1]) | % Wound closure after 24 h treatment (MCF-7 cells [2]) | IC50 [3] | Decrease in fluorescence (%) T4 DNA (T4 coliphage DNA) | Decrease in fluorescence (%) Calf Thymus DNA (calf thymus DNA) | Selectivity index (SI) [5] | Decrease in fluorescence (%) pBr322 (degree of EtBr displacement) (plasmid pBR322 [6]) |
| --- | --- | --- | --- | --- | --- | --- | --- | --- | --- | --- | --- | --- | --- |
| 67.28% | 63.44% | 56.91% | 0.08 ± 0.001 µM | 2.72 µg/mL (≈ 7.09 µM) | O=C(O)C(/C=C/c1ccc(Cl)cc1)=N\Nc1nc(-c2ccccc2)cs1 [Compound 5, (2Z,3E)-4-(4-Chlorophenyl)-2-(2–(4-phenylthiazol-2-yl)hydrazinylidene)but-3-enoic acid] | 3.09% | 29.63% | 45.19% | 32.6 µg/mL (≈ 84.8 µM) | 28.05% | 63.15% | 11.97 |  |
| 62.38% | 62.36% |  | 39.41 ± 0.03 µM |  | COc1ccc(-c2csc(N/N=C(/C=C/c3ccc(Cl)cc3)C(=O)O)n2)cc1 [Compound 7, (2Z,3E)-4-(4-Chlorophenyl)-2-(2-(4-(4-methoxyphenyl)thiazol-2-yl)hydrazinylidene)but-3-enoic acid] |  |  |  |  | 36.58% | 44.21% |  |  |
| 62.99% | 60.93% | 52.83% | 10.51 ± 0.05 µM |  | O=C(O)C(/C=C/c1ccc(Cl)cc1)=N\Nc1nc(-c2ccc(F)cc2)cs1 [Compound 8, (2Z,3E)-4-(4-Chlorophenyl)-2-(2-(4-(4-fluorophenyl)thiazol-2-yl)hydrazinylidene)but-3-enoic acid] |  |  |  |  | 37.19% | 40.00% |  |  |
| 49.23% | 53.40% | 71.19% | 36.18 ± 0.01 µM |  | O=C(O)C(/C=C/c1ccc(Cl)cc1)=N\Nc1nc(-c2ccc(Cl)cc2)cs1 [Compound 9, (2Z,3E)-4-(4-Chlorophenyl)-2-(2-(4-(4-chlorophenyl)thiazol-2-yl)hydrazinylidene)but-3-enoic acid] |  |  |  |  | 50.00% | 53.68% |  |  |
| 56.57% | 56.21% | 53.39% | 0.06 ± 0.03 µM | 12.5 µg/mL (≈ 29.2 µM) | O=C(O)C(/C=C/c1ccc(Cl)cc1)=N\Nc1nc(-c2ccc([N+](=O)[O-])cc2)cs1 [Compound 11, (2Z,3E)-4-(4-Chlorophenyl)-2-(2-(4-(4-nitrophenyl)thiazol-2-yl)hydrazinylidene)but-3-enoic acid] | 4.81% | 23.99% | 52.72% | 84.4 µg/mL (≈ 197 µM) | 28.89% | 46.31% | 6.74 |  |
| 59.37% | 54.84% | 54.80% | 21.06 ± 0.02 µM |  | O=C(O)C(/C=C/c1c(Cl)cccc1Cl)=N\Nc1nc(-c2ccccc2)cs1 [Compound 12, (2Z,3E)-4-(2,6-dichlorophenyl)-2-(2-(4-phenylthiazol-2-yl)hydrazinylidene)but-3-enoic acid] |  |  |  |  | 48.17% | 60.53% |  |  |
| 75.62% | 62.01% | 55.74% | 18.06 ± 0.03 µM |  | Cc1ccc(-c2csc(N/N=C(/C=C/c3c(Cl)cccc3Cl)C(=O)O)n2)cc1 [Compound 13, (2Z,3E)-4-(2,6-dichlorophenyl)-2-(2-(4-(4-tolyl)thiazol-2-yl)hydrazinylidene)but-3-enoic acid] |  |  |  |  | 51.22% | 67.71% |  |  |
| 61.25% | 51.61% | 67.21% | 31.02 ± 0.04 µM |  | COc1ccc(-c2csc(N/N=C(/C=C/c3c(Cl)cccc3Cl)C(=O)O)n2)cc1 [Compound 14, (2Z,3E)-4-(2,6-dichlorophenyl)-2-(2-(4-(4-methoxyphenyl)thiazol-2-yl)hydrazinylidene)but-3-enoic acid] |  |  |  |  | 40.85% | 58.95% |  |  |
|  | 100% |  | 8.31 ± 0.06 µM |  | COc1cccc2c1C(=O)c1c(O)c3c(c(O)c1C2=O)C[C@@](O)(C(=O)CO)C[C@@H]3O[C@H]1C[C@H](N)[C@H](O)[C@H](C)O1 [DOX, doxorubicin, reference compound] |  |  |  |  |  |  |  |  |

— publication PMC11881662 (Journal of Enzyme Inhibition and Medicinal Chemistry, 2025)
